Measured values as given in PMC3951269 (Nature, 2013).

Legend:
[1] = target: T1, CPTP (GLTPD1) (Homo sapiens, UniProt Q5TA50); assay: X-ray crystal structure; assay type: binding; conditions: sphingosine-in mode site as C1P
T1 sequence (Q5TA50 1-214): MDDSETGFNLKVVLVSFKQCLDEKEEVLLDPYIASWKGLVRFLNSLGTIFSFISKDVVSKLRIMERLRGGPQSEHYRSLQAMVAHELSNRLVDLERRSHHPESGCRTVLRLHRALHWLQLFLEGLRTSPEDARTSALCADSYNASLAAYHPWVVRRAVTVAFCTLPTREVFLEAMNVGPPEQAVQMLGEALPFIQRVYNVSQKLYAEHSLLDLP

[2] = target: T1, CPTP (GLTPD1); assay: FRET lipid transfer between POPC vesicles; assay type: biochemical; conditions: 37 °C; labelled compound

| SMILES | X-ray crystal structure [1] | transfer rate [2] |
| --- | --- | --- |
| CCCCCCCCCCCC(=O)OC[C@H](COP(=O)(O)O)OC(=O)CCCCCCCCCCC [di12:0-PA] | PA occupies the same binding site | – |
| CCCCCCCCCCCCC/C=C/[C@@H](O)[C@H](COP(=O)(O)O)NC(=O)CCCCCCCCC/C=C/c1c2ccccc2cc2ccccc12 [AV-C1P, anthrylvinyl-C1P] | – | ~ 4 C1P molecules/min/protein |
